Assay results taken from patent publication EP0371837A2, “Process for the synthesis of esters of dithiocarbamic acids by substitution of hydroxylated positions of mono- or polyhydroxylated molecules, products of this process and their uses” (PASTEUR MERIEUX SERUMS ET VACCINS, priority 1988, dated 1990).

Legend:
[1] = Activity of lithium dithiocarbamates (method not described); conditions: statement in words, no test described; same applications as the esters (immunomodulator, antiviral)
[2] = Toxicity of lithium dithiocarbamates (method not described); conditions: statement in words, no test described

For `CCN(CC)C(=S)S` [diéthyldithiocarbamate de lithium, N,N diéthyl dithiocarbamate de lithium], the activité [1] was “très actifs” and the toxicité [2] was “peu toxiques”.
